Calls of active or inactive are those of the source. The calls are words filed in the database; no cut-off is given here.
Experiments:
Insulin receptor [1] = molecular target: T1, Insulin receptor (Homo sapiens, UniProt P06213); experiment: Inhibition of human INSR using poly (Glu, Tyr)4:1 as substrate in presence of [gamma33P]-ATP by HotSpot assay
[2] = molecular target: Ribosomal protein S6 kinase alpha-2 (Homo sapiens, UniProt Q15349); experiment: Inhibition of human RPS6kA2 using KKLNRTLSVA as substrate in presence of [gamma33P]-ATP by HotSpot assay
[3] = molecular target: Receptor tyrosine-protein kinase erbB-4 (Homo sapiens, UniProt Q15303); experiment: Inhibition of human ERBB4 using poly (Glu, Tyr)4:1 as substrate in presence of [gamma33P]-ATP by HotSpot assay
[4] = molecular target: Tyrosine-protein kinase Blk (Homo sapiens, UniProt P51451); experiment: Inhibition of human BLK using poly (Glu, Tyr)4:1 as substrate in presence of [gamma33P]-ATP by HotSpot assay
[5] = molecular target: Tyrosine-protein kinase ABL1 (Homo sapiens, UniProt P00519, T315I); experiment: Inhibition of human ABL1 T315I mutant using EAIYAAPFAKKK as substrate in presence of [gamma33P]-ATP by HotSpot assay
Aurora kinase B = Aurora kinase B (Homo sapiens, UniProt Q96GD4); experiment: Inhibition of human AURKB using H-LRRASLG as substrate in presence of [gamma33P]-ATP by HotSpot assay
[6] = molecular target: CDK6/cyclin D1 (Homo sapiens) (UniProt P24385+Q00534); experiment: Inhibition of human CDK6/CyclinD1 at 1 uM using RB protein as substrate in presence of [gamma33P]-ATP by HotSpot assay relative to control; format: protein-complex assay
[7] = molecular target: Ephrin type-B receptor 3 (Homo sapiens) (UniProt P54753); experiment: Inhibition of human EPHB3 at 1 uM using poly (Glu, Tyr)4:1 as substrate in presence of [gamma33P]-ATP by HotSpot assay relative to control
[8] = molecular target: Rhodopsin kinase GRK7 (Homo sapiens) (UniProt Q8WTQ7); experiment: Inhibition of human GRK7 at 1 uM using casein as substrate in presence of [gamma33P]-ATP by HotSpot assay relative to control
[9] = molecular target: Interleukin-1 receptor-associated kinase 1 (Homo sapiens) (UniProt P51617); experiment: Inhibition of human IRAK1 at 1 uM using MBP as substrate in presence of [gamma33P]-ATP by HotSpot assay relative to control
[10] = molecular target: MAP kinase-activated protein kinase 2 (Homo sapiens) (UniProt P49137); experiment: Inhibition of human MAPKAPK2 at 1 uM using KKLNRTLSVA as substrate in presence of [gamma33P]-ATP by HotSpot assay relative to control
[11] = molecular target: Myosin light chain kinase, smooth muscle (Homo sapiens) (UniProt Q15746); experiment: Inhibition of human MYLK at 1 uM using KKLNRTLSFAEPG as substrate in presence of [gamma33P]-ATP by HotSpot assay relative to control
[12] = molecular target: Serine/threonine-protein kinase Nek7 (Homo sapiens) (UniProt Q8TDX7); experiment: Inhibition of human NEK7 at 1 uM using casein as substrate in presence of [gamma33P]-ATP by HotSpot assay relative to control
[13] = molecular target: Serine/threonine-protein kinase NLK (Homo sapiens) (UniProt Q9UBE8); experiment: Inhibition of human NLK at 1 uM using MBP as substrate in presence of [gamma33P]-ATP by HotSpot assay relative to control
[14] = molecular target: Mitogen-activated protein kinase 12 (Homo sapiens) (UniProt P53778); experiment: Inhibition of human P38gamma at 1 uM using MBP as substrate in presence of [gamma33P]-ATP by HotSpot assay relative to control
[15] = molecular target: PAS domain-containing serine/threonine-protein kinase (Homo sapiens) (UniProt Q96RG2); experiment: Inhibition of human PASK at 1 uM using KKLNRTLSFAEPG as substrate in presence of [gamma33P]-ATP by HotSpot assay relative to control
Homo sapiens = organism: Homo sapiens; experiment: Inhibition of human PKA at 1 uM using LCGRTGRRNSI as substrate in presence of [gamma33P]-ATP by HotSpot assay relative to control
[16] = molecular target: Serine/threonine-protein kinase N2 (Homo sapiens) (UniProt Q16513); experiment: Inhibition of human PKN2 at 1 uM using LRRASLG as substrate in presence of [gamma33P]-ATP by HotSpot assay relative to control
[17] = molecular target: Protein kinase C delta type (Homo sapiens) (UniProt Q05655); experiment: Inhibition of human PRKCD at 1 uM using ERMRPRKRQGSVRRRV as substrate in presence of [gamma33P]-ATP by HotSpot assay relative to control
[18] = molecular target: Tyrosine-protein kinase TXK (Homo sapiens) (UniProt P42681); experiment: Inhibition of human TXK at 1 uM using EAIYAAPFAKKK as substrate in presence of [gamma33P]-ATP by HotSpot assay relative to control
Mus musculus [19] = experiment: In vivo inhibition of ALK phosphorylation in SCID Beige mouse xenografted with ALK positive human KARPAS-299 cells at 10 to 50 mg/kg, po administered once daily for 4 days and measured 24 hrs after last dose by ELISA; format: functional, organism-based; settings: dose 10-50 mg/kg, time 5.0 day
Mus musculus [20] = experiment: In vivo inhibition of ALK signaling in SCID Beige mouse xenografted with ALK positive human KARPAS-299 cells assessed as reduction in phosphorylated STAT3 level at 10 to 50 mg/kg, po administered as single dose and measured at 6 to 24 hrs by immunoblot analysis; format: functional, organism-based; settings: dose 10-50 mg/kg, time 6-24 hrs
NCI-H2228 = experiment: Antitumor activity against ALK positive human NCI-H2228 cells xenografted in CB-17/SCID orthotopic brain tumor mouse model assessed as median survival time at 25 mg/kg po administered daily and measured after 64 days (reference value: 28 days); format: functional; settings: time 64 day
BaF3 = experiment: In vivo inhibition of ALK signaling in mouse implanted with mouse BaF3 cells expressing EML4-ALK G1202R mutant assessed as inhibition of ALK phosphorylation at 25 mg/kg, po administered as single dose and measured at 6 to 24 hrs by ELISA; format: functional, organism-based; settings: time 6-24 hrs
Insulin receptor [21] = molecular target: T1, Insulin receptor
Description: Inhibition of INSR phosphorylation in insulin-stimulated human H4-II-E cells preincubated with compound for 30 mins followed by insulin stimulation and measured after 10 mins by immunoblot analysis

[22] = test system: EML4-ALK (Homo sapiens), Q9UM73+Q9HC35 [D1203N]; settings: BaF3, time 3-5 weeks
[23] = test system: EML4-ALK (Homo sapiens), Q9UM73+Q9HC35 [G1269A]; settings: BaF3, dose 500.0 nmol/L, time 3-5 weeks
[24] = test system: EML4-ALK (Homo sapiens), Q9UM73+Q9HC35 [F1174C]; settings: BaF3, dose 200.0 nmol/L, time 3-5 weeks

T1 sequence (P06213 28-758 limits assumed): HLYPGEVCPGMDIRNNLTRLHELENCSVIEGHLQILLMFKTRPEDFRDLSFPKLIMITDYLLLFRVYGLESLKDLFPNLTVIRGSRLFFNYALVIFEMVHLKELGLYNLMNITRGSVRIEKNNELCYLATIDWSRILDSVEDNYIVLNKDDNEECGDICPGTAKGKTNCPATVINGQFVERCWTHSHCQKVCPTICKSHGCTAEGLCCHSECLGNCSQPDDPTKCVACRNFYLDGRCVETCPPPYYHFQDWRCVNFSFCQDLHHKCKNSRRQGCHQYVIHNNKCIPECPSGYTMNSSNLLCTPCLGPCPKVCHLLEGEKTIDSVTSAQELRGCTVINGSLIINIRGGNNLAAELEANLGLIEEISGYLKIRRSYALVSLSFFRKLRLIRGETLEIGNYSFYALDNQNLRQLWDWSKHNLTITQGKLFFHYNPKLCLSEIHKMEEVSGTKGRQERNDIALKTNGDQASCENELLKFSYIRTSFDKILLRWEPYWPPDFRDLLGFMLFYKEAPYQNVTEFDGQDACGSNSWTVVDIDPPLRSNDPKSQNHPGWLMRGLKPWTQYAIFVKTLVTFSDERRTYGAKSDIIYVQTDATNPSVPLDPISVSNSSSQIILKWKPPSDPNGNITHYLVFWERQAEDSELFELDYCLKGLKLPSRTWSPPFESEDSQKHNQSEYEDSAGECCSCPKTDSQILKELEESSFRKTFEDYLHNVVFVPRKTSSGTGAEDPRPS
T1 sequence (P06213 763-1382 limits assumed): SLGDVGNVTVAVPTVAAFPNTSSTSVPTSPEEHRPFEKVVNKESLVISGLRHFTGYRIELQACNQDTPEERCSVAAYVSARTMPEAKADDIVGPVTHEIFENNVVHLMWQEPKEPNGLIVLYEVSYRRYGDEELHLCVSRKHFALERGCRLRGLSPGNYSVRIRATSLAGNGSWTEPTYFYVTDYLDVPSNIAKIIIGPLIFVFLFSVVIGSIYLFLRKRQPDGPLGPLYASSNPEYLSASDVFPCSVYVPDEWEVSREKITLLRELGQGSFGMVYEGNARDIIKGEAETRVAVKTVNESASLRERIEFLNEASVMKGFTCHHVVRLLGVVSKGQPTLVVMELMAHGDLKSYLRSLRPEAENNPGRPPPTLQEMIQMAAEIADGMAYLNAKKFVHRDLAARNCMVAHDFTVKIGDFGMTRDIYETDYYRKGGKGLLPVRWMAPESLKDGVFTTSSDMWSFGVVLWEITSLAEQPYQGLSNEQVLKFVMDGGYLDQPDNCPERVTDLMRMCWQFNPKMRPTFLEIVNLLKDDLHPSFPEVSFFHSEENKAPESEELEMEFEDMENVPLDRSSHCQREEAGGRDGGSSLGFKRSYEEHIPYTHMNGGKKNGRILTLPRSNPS
Sequence of Myosin light chain kinase, smooth muscle (Homo sapiens) (Q15746 whole entry): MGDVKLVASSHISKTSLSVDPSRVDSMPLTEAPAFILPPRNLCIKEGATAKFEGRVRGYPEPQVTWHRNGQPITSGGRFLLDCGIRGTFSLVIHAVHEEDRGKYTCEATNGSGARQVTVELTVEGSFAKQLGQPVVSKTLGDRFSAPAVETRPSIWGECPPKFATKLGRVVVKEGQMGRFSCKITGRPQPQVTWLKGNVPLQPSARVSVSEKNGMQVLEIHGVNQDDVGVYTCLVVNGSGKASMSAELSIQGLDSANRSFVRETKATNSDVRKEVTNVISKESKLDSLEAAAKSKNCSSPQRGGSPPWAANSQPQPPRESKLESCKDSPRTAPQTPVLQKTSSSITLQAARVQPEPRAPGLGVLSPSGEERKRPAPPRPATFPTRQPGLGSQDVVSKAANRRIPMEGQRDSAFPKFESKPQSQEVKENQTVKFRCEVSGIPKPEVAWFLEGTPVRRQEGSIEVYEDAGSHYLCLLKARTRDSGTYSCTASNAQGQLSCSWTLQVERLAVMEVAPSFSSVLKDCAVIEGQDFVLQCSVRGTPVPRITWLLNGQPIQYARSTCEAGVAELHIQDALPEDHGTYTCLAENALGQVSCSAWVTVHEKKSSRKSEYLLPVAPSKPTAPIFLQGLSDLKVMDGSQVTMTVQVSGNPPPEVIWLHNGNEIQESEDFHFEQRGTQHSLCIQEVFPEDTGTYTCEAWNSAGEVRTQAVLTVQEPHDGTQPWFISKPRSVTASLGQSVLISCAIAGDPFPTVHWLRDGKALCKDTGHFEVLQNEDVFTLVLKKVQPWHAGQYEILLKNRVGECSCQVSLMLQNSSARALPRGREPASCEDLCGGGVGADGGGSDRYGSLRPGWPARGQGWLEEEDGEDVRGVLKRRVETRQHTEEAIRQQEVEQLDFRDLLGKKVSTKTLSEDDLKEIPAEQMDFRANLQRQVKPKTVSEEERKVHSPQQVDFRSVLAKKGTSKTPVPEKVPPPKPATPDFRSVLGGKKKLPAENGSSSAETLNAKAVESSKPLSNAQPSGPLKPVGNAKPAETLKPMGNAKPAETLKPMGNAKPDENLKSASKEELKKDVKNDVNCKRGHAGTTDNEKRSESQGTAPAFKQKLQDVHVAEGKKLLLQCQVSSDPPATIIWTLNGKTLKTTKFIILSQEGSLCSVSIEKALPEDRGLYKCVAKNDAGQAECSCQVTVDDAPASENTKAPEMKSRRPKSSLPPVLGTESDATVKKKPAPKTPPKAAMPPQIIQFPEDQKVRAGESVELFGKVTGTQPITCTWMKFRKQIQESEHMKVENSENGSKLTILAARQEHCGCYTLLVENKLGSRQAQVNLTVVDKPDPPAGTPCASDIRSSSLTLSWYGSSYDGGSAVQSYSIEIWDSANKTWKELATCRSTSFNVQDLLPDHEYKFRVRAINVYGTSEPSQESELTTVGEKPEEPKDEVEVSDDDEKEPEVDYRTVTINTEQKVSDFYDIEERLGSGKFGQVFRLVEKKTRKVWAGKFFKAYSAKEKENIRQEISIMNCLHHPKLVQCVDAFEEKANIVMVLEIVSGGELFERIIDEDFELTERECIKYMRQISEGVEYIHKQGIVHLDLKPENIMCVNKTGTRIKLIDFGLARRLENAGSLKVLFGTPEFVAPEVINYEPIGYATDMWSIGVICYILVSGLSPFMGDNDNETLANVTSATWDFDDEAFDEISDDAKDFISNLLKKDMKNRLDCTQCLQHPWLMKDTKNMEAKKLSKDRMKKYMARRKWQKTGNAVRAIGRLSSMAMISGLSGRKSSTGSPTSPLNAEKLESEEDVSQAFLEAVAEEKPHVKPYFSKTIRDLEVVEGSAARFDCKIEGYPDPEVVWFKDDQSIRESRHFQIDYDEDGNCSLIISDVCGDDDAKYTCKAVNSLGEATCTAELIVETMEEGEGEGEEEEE
Sequence of Tyrosine-protein kinase Blk (P51451 whole entry): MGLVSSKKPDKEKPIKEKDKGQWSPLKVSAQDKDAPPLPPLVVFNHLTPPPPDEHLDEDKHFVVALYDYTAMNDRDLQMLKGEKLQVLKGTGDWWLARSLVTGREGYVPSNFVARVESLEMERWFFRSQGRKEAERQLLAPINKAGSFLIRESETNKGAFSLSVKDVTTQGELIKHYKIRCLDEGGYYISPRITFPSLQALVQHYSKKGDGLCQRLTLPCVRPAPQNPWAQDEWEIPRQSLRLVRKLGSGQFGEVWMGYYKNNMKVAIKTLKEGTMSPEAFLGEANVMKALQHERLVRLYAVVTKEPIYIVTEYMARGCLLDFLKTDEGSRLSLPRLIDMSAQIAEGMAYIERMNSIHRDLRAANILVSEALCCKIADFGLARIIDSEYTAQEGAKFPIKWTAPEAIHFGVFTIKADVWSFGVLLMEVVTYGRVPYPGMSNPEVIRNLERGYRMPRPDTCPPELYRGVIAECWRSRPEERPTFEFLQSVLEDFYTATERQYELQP
Sequence of Interleukin-1 receptor-associated kinase 1 (Homo sapiens) (P51617 whole entry, looked up): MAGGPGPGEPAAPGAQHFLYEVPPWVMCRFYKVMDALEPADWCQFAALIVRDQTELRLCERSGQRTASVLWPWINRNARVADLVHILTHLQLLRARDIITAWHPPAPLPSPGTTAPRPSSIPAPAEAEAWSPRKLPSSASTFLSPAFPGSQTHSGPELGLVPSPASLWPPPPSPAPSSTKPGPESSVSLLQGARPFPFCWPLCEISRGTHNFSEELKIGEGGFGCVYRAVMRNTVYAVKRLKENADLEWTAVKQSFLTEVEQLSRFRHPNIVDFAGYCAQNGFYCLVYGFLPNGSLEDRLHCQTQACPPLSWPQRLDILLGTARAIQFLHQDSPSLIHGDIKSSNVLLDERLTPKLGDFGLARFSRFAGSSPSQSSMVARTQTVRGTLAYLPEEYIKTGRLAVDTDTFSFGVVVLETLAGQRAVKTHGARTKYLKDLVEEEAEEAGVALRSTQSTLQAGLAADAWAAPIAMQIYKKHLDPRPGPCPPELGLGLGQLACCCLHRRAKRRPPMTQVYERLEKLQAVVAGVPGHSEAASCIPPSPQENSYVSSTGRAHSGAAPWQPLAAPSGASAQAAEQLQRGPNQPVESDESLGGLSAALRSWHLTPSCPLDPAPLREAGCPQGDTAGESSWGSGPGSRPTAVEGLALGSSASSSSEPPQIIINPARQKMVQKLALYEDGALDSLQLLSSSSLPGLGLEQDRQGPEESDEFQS
Sequence of Rhodopsin kinase GRK7 (Homo sapiens) (Q8WTQ7 whole entry): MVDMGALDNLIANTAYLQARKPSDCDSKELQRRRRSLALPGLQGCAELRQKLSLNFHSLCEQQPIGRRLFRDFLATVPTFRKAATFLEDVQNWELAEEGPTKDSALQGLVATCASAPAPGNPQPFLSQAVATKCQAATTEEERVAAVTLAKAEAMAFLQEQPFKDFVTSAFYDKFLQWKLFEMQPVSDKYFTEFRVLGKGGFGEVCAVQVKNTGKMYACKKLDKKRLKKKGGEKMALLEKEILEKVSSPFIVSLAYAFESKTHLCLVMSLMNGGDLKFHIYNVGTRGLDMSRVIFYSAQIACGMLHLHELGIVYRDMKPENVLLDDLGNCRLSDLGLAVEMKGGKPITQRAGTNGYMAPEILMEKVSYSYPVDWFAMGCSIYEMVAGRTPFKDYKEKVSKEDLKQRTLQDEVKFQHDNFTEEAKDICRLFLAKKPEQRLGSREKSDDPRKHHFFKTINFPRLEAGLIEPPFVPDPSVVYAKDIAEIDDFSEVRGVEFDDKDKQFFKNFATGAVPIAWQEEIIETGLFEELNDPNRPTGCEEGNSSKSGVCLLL

SMILES: COc1cc(N2CCC(N3CCN(C)CC3)CC2)ccc1Nc1ncc(Cl)c(Nc2ccccc2P(C)(C)=O)n1 [BRIGATINIB]
- IC50 (Insulin receptor [1]): 160 nM
- IC50 [2]: 13 nM
- IC50 [3]: 27 nM
- IC50 [4]: 136 nM
- IC50 [5]: 242 nM
- IC50 (Aurora kinase B): > 1000 nM
- inhibition [6]: < 90%
- inhibition [7]: < 90%
- inhibition [8]: < 90%
- inhibition [9]: < 90%
- inhibition [10]: < 90%
- inhibition [11]: < 90%
- inhibition [12]: < 90%
- inhibition [13]: < 90%
- inhibition [14]: < 90%
- inhibition [15]: < 90%
- inhibition (Homo sapiens): < 90%
- inhibition [16]: < 90%
- inhibition [17]: < 90%
- inhibition [18]: < 90%
- Activity (Mus musculus [19]): Active
- Activity (Mus musculus [20]): Active
- MSD (NCI-H2228): 62 days
- inhibition (BaF3): Active
- IC50 (Insulin receptor [21]): 9330 nM
- IC90 [22]: 276 nM
- inhibition [23]: Active
- inhibition [24]: inactive

Source: ChEMBL document CHEMBL5696443 (Clin Cancer Res, 2016)
